# Measurements published in US20250090695A1, “IMMUNOSTIMULANT-CYTOTOXIC CONJUGATE COMPOSITION AND METHODS FOR CANCER TREATMENT” (The Research Foundation for the State University of New York, priority 2022, published 2025).
# Columns and labels:
# [1] = test system: CD8+ and CD4+ T-cell populations; assay: T-cell population analysis in spleen and tumor of RM1-PGLS bearing mice; format: in vivo; set-up: unit not given here; conditions: RM1-PGLS bearing C57BL/6J mice
# Procedure: FIG. 12A-12B show graphical representations of T-cell population analysis measuring cell viability in the spleen (FIG. 12A). and in the tumor (FIG. 12B) in vivo for subjects having RM1-PGLS tumors with either an experimental ^177Lu-RIMS compound, or a control compound selected from: ^177Lu-PSMA-617, unlabeled Lu-RIMS, or a control vehicle.
# ^177Lu-RIMS-1 and control compounds were evaluated for immune cell recruitment.
# [2] = Biodistribution in a syngeneic model of prostate cancer with a RM1-PGLS tumor; conditions: C57BL/6J mice
# RM1-PGLS tumors = format: in vivo, murine subjects; conditions: overall survival post treatment; RM1-PGLS tumors; P < 0.0007 printed for 177Lu-RIMS-1
# Procedure: FIG. 11A-11C show a visual schematic of RM1-PGLS tumor insertion in mice followed by T-cell population analysis (FIG. 11A), and tumor efficacy study analysis for in vivo tumor treatment with experimental ^177Lu-RIMS-1 compound compared with control compounds: ^177Lu-PSMA-617, unlabeled Lu-RIMS, and saline (FIG. 11B) measuring tumor volume (left), and percent survival (right).
# Murine subjects were treated with RIMS compounds and tumor volume (FIG. 11B, left), subject viability measured as percent survival (FIG. 11B, right), subject weight (FIG. 11C), were described and analyzed as shown in FIGS. 11A-11C. Median overall survivability (OS) in murine subjects treated with RIMS compounds and control therapies.
# PSMA = target: T1, PSMA (Homo sapiens, UniProt Q04609); conditions: clinical trials; cited from earlier work
# T1 construct: This has been leveraged in clinical trials using the radiotherapeutic 117Lu-PSMA-617; host or cells: tumours of prostate cancer patients
# T1 sequence (Q04609 whole entry): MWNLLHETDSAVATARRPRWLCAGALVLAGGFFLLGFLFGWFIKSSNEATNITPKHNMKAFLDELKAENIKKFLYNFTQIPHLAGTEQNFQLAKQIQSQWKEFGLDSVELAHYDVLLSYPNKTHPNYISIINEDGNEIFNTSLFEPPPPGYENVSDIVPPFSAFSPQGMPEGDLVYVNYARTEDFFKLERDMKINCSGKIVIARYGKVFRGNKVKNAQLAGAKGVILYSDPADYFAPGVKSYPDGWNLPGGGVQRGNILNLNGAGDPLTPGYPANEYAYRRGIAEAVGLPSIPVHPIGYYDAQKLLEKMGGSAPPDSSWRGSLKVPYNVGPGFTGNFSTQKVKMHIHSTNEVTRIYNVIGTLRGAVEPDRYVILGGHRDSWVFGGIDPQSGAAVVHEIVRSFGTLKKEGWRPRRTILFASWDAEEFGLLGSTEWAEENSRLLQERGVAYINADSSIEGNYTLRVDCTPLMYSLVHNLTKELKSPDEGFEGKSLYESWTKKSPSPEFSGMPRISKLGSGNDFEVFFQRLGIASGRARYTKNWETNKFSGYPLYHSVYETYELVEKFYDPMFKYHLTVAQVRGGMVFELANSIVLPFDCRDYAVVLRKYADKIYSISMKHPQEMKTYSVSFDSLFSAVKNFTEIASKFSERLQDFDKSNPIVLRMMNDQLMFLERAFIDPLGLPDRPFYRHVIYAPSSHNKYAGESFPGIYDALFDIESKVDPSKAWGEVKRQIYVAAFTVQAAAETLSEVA
# T-cells (CD3) = assay: Immuno-PET ROI analysis of 89Zr-DFO-anti-CD3 after therapy (tumor infiltrating T-cells); format: in vivo, murine subjects
# Procedure: FIG. 13A-13C describes a method and results for T-cell detection using immuno-positron emission tomography (PET).
# FIG. 14A-14D show graphical representations of tumor infiltrating T-cell analysis after administration of a therapeutic compound or control. Infiltration was measured using immuno-positron emission tomography (PET).
# [3] = OLINDA dosimetry to adult male from mouse biodistribution
smiles,measurement,setting,value
O=C([O-])CN1CCN(CC(=O)[O-])CCN(CC(=O)NCC2CCC(C(=O)N[C@@H](Cc3ccc4ccccc4c3)C(=O)NCCCC[C@H](NC(=O)N[C@@H](CCC(=O)O)C(=O)O)C(=O)O)CC2)CCN(CC(=O)[O-])CC1.[177Lu+3] (stereo partly drawn) [^177Lu-PSMA-617],Total CD4+ T-cell population,[1]; Spleen,12.73 ± 2.17
same,Total CD8+ T-cell population,[1]; Spleen,8.78 ± 1.61
same,Total CD4+ T-cell population,[1]; Tumor,1.47 ± 0.59
same,Total CD8+ T-cell population,[1]; Tumor,4.76 ± 1.40
same,Biodistribution Blood (% ID/g ± SD),[2]; 2 h,0.03 ± 0.02 % ID/g
same,Biodistribution Bone (% ID/g ± SD),[2]; 2 h,0.05 ± 0.05 % ID/g
same,Biodistribution Heart (% ID/g ± SD),[2]; 2 h,0.03 ± 0.01 % ID/g
same,Biodistribution Kidney (% ID/g ± SD),[2]; 2 h,1.39 ± 0.48 % ID/g
same,Biodistribution Liver (% ID/g ± SD),[2]; 2 h,0.17 ± 0.12 % ID/g
same,Biodistribution Muscle (% ID/g ± SD),[2]; 2 h,0.05 ± 0.05 % ID/g
same,Biodistribution RM1-PGLS tumor (% ID/g ± SD),[2]; 2 h,0.80 ± 0.18 % ID/g
same,Biodistribution Sm Int (% ID/g ± SD),[2]; 2 h,0.03 ± 0.01 % ID/g
same,Biodistribution Spleen (% ID/g ± SD),[2]; 2 h,0.08 ± 0.03 % ID/g
same,Biodistribution Blood (% ID/g ± SD),[2]; 24 h,0.00 ± 0.00 % ID/g
same,Biodistribution Bone (% ID/g ± SD),[2]; 24 h,0.01 ± 0.01 % ID/g
same,Biodistribution Heart (% ID/g ± SD),[2]; 24 h,0.01 ± 0.00 % ID/g
same,Biodistribution Kidney (% ID/g ± SD),[2]; 24 h,0.09 ± 0.07 % ID/g
same,Biodistribution Liver (% ID/g ± SD),[2]; 24 h,0.02 ± 0.01 % ID/g
same,Biodistribution Muscle (% ID/g ± SD),[2]; 24 h,0.01 ± 0.01 % ID/g
same,Biodistribution RM1-PGLS tumor (% ID/g ± SD),[2]; 24 h,0.25 ± 0.09 % ID/g
same,Biodistribution Sm Int (% ID/g ± SD),[2]; 24 h,0.01 ± 0.01 % ID/g
same,Biodistribution Spleen (% ID/g ± SD),[2]; 24 h,0.02 ± 0.01 % ID/g
same,Biodistribution Blood (% ID/g ± SD),[2]; 72 h,0.01 ± 0.01 % ID/g
same,Biodistribution Bone (% ID/g ± SD),[2]; 72 h,0.01 ± 0.01 % ID/g
same,Biodistribution Heart (% ID/g ± SD),[2]; 72 h,0.01 ± 0.00 % ID/g
same,Biodistribution Kidney (% ID/g ± SD),[2]; 72 h,0.04 ± 0.01 % ID/g
same,Biodistribution Liver (% ID/g ± SD),[2]; 72 h,0.02 ± 0.01 % ID/g
same,Biodistribution Muscle (% ID/g ± SD),[2]; 72 h,0.01 ± 0.00 % ID/g
same,Biodistribution RM1-PGLS tumor (% ID/g ± SD),[2]; 72 h,0.18 ± 0.06 % ID/g
same,Biodistribution Sm Int (% ID/g ± SD),[2]; 72 h,0.02 ± 0.01 % ID/g
same,Biodistribution Spleen (% ID/g ± SD),[2]; 72 h,0.02 ± 0.01 % ID/g
same,Median OS,RM1-PGLS tumors,15 days
same,Non-responders among patients,PSMA,30%
same,% Injected Dose/cc of 89Zr-DFO-anti-CD3 (ROI),"T-cells (CD3); Blood, 8 days after administration of therapy",8.94 ± 0.34 % Injected Dose/cc
same,% Injected Dose/cc of 89Zr-DFO-anti-CD3 (ROI),"T-cells (CD3); Blood, 9 days after administration of therapy",5.85 ± 2.22 % Injected Dose/cc
same,% Injected Dose/cc of 89Zr-DFO-anti-CD3 (ROI),"T-cells (CD3); Blood, 10 days after administration of therapy",4.13 ± 0.68 % Injected Dose/cc
same,% Injected Dose/cc of 89Zr-DFO-anti-CD3 (ROI),"T-cells (CD3); Blood, 11 days after administration of therapy",4.05 ± 1.24 % Injected Dose/cc
same,% Injected Dose/cc of 89Zr-DFO-anti-CD3 (ROI),"T-cells (CD3); Blood, 12 days after administration of therapy",4.26 ± 0.62 % Injected Dose/cc
same,% Injected Dose/cc of 89Zr-DFO-anti-CD3 (ROI),"T-cells (CD3); Spleen, 8 days after administration of therapy",21.55 ± 4.49 % Injected Dose/cc
same,% Injected Dose/cc of 89Zr-DFO-anti-CD3 (ROI),"T-cells (CD3); Spleen, 9 days after administration of therapy",24.84 ± 4.91 % Injected Dose/cc
same,% Injected Dose/cc of 89Zr-DFO-anti-CD3 (ROI),"T-cells (CD3); Spleen, 10 days after administration of therapy",27.09 ± 3.75 % Injected Dose/cc
same,% Injected Dose/cc of 89Zr-DFO-anti-CD3 (ROI),"T-cells (CD3); Spleen, 11 days after administration of therapy",23.82 ± 3.55 % Injected Dose/cc
same,% Injected Dose/cc of 89Zr-DFO-anti-CD3 (ROI),"T-cells (CD3); Spleen, 12 days after administration of therapy",24.65 ± 0.81 % Injected Dose/cc
same,% Injected Dose/cc of 89Zr-DFO-anti-CD3 (ROI),"T-cells (CD3); Tumor, 8 days after administration of therapy",10.27 ± 0.024 % Injected Dose/cc
same,% Injected Dose/cc of 89Zr-DFO-anti-CD3 (ROI),"T-cells (CD3); Tumor, 9 days after administration of therapy",7.83 ± 1.66 % Injected Dose/cc
same,% Injected Dose/cc of 89Zr-DFO-anti-CD3 (ROI),"T-cells (CD3); Tumor, 10 days after administration of therapy",6.67 ± 3.63 % Injected Dose/cc
same,% Injected Dose/cc of 89Zr-DFO-anti-CD3 (ROI),"T-cells (CD3); Tumor, 11 days after administration of therapy",3.90 ± 0.35 % Injected Dose/cc
same,% Injected Dose/cc of 89Zr-DFO-anti-CD3 (ROI),"T-cells (CD3); Tumor, 12 days after administration of therapy",2.72 ± 0.81 % Injected Dose/cc
same,"OLINDA dosimetry to Adult Male, Adrenals",[3]; Target Organ Adrenals,1.32 μSv/MBq
same,"OLINDA dosimetry to Adult Male, Brain",[3]; Target Organ Brain,0.00 μSv/MBq
same,"OLINDA dosimetry to Adult Male, Esophagus",[3]; Target Organ Esophagus,0.25 μSv/MBq
